According to ChEMBL document CHEMBL1129930, “Analogues of methotrexate in rheumatoid arthritis. 2. Effects of 5-deazaaminopterin, 5,10-dideazaaminopterin, and analogues on type II collagen-induced arthritis in mice” (J Med Chem, 1997):

Key:
[1] = tested on: Mus musculus; test: Incidence of disease (mouse type II collagen) was scored as the percentage of animals within each experimental group that exhibited joint or limb inflammation on day 23 at intraperitoneal dose of 0.047 mg/kg (deaths observed at 1.5 mg/kg); format: functional
[2] = tested on: Mus musculus; test: Tested for antiinflammatory activity on mouse type II collagen arthritis as Paw swelling of all animals in each group on day 44 at intraperitoneal dose of 0.75 mg/kg; format: functional
[3] = tested on: Mus musculus; test: Tested for antiinflammatory activity on mouse type II collagen arthritis as Paw swelling of all animals in each group on day 30 at intraperitoneal dose of 0.19 mg/kg; format: functional
[4] = tested on: Mus musculus; test: Incidence of disease (mouse type II collagen) was scored as the percentage of animals within each experimental group that exhibited joint or limb inflammation on day 37 at intraperitoneal dose of 0.38 mg/kg (deaths observed at 1.5 mg/kg); format: functional
[5] = tested on: Mus musculus; test: Tested for antiinflammatory activity on mouse type II collagen arthritis as Paw swelling of all animals in each group on day 37 at intraperitoneal dose of 0.19 mg/kg; format: functional
[6] = tested on: Mus musculus; test: Tested for antiinflammatory activity on mouse type II collagen arthritis as Paw swelling of all animals in each group on day 44 at intraperitoneal dose of 0.38 mg/kg; format: functional
[7] = tested on: L1210; test: Concentration required to inhibit the growth of L1210 cells.; format: functional, cell-based; details: Mus musculus
[8] = tested on: Mus musculus; test: Tested for antiinflammatory activity on mouse type II collagen arthritis as Paw swelling of all animals in each group on day 23 at intraperitoneal dose of 0.024 mg/kg; format: functional
[9] = tested on: Mus musculus; test: Incidence of disease (mouse type II collagen) was scored as the percentage of animals within each experimental group that exhibited joint or limb inflammation on day 23 at intraperitoneal dose of 0.094 mg/kg (deaths observed at 1.5 mg/kg); format: functional
[10] = tested on: Mus musculus; test: Incidence of disease (mouse type II collagen) was scored as the percentage of animals within each experimental group that exhibited joint or limb inflammation on day 30 at intraperitoneal dose of 0.094 mg/kg (deaths observed at 1.5 mg/kg); format: functional
[11] = tested on: Mus musculus; test: Tested for antiinflammatory activity on mouse type II collagen arthritis as Paw swelling of all animals in each group on day 23 at intraperitoneal dose of 0.38 mg/kg; format: functional
[12] = tested on: Mus musculus; test: Incidence of disease (mouse type II collagen) was scored as the percentage of animals within each experimental group that exhibited joint or limb inflammation on day 44 at intraperitoneal dose of 0.024 mg/kg (deaths observed at 1.5 mg/kg); format: functional
[13] = tested on: Mus musculus; test: Incidence of disease (mouse type II collagen) was scored as the percentage of animals within each experimental group that exhibited joint or limb inflammation on day 37 at intraperitoneal dose of 0.19 mg/kg (deaths observed at 1.5 mg/kg); format: functional
[14] = tested on: Mus musculus; test: Incidence of disease (mouse type II collagen) was scored as the percentage of animals within each experimental group that exhibited joint or limb inflammation on day 23 at intraperitoneal dose of 0.19 mg/kg (deaths observed at 1.5 mg/kg); format: functional
[15] = tested on: Mus musculus; test: Incidence of disease (mouse type II collagen) was scored as the percentage of animals within each experimental group that exhibited joint or limb inflammation on day 44 at intraperitoneal dose of 0.094 mg/kg (deaths observed at 1.5 mg/kg); format: functional
[16] = tested on: Mus musculus; test: Incidence of disease (mouse type II collagen) was scored as the percentage of animals within each experimental group that exhibited joint or limb inflammation on day 37 at intraperitoneal dose of 0.047 mg/kg (deaths observed at 1.5 mg/kg); format: functional
[17] = tested on: Mus musculus; test: Tested for antiinflammatory activity on mouse type II collagen arthritis as Paw swelling of all animals in each group on day 23 at intraperitoneal dose of 0.047 mg/kg; format: functional
[18] = tested on: Mus musculus; test: Tested for antiinflammatory activity on mouse type II collagen arthritis as Paw swelling of all animals in each group on day 30 at intraperitoneal dose of 0.094 mg/kg; format: functional
[19] = tested on: Mus musculus; test: Incidence of disease (mouse type II collagen) was scored as the percentage of animals within each experimental group that exhibited joint or limb inflammation on day 30 at intraperitoneal dose of 0.047 mg/kg (deaths observed at 1.5 mg/kg); format: functional
[20] = tested on: Mus musculus; test: Tested for antiinflammatory activity on mouse type II collagen arthritis as Paw swelling of all animals in each group on day 23 at intraperitoneal dose of 0.094 mg/kg; format: functional
[21] = tested on: Mus musculus; test: Incidence of disease (mouse type II collagen) was scored as the percentage of animals within each experimental group that exhibited joint or limb inflammation on day 23 at intraperitoneal dose of 0.38 mg/kg (deaths observed at 1.5 mg/kg); format: functional
[22] = tested on: Mus musculus; test: Tested for antiinflammatory activity on mouse type II collagen arthritis as Paw swelling of all animals in each group on day 23 at intraperitoneal dose of 0.75 mg/kg; format: functional
[23] = tested on: Mus musculus; test: Tested for antiinflammatory activity on mouse type II collagen arthritis as Paw swelling of all animals in each group on day 37 at intraperitoneal dose of 0.38 mg/kg; format: functional
[24] = tested on: Mus musculus; test: Tested for antiinflammatory activity on mouse type II collagen arthritis as Paw swelling of all animals in each group on day 44 at intraperitoneal dose of 0.024 mg/kg; format: functional
[25] = tested on: Mus musculus; test: Incidence of disease (mouse type II collagen) was scored as the percentage of animals within each experimental group that exhibited joint or limb inflammation on day 23 at intraperitoneal dose of 0.75 mg/kg (deaths observed at 1.5 mg/kg); format: functional
[26] = tested on: Mus musculus; test: Incidence of disease (mouse type II collagen) was scored as the percentage of animals within each experimental group that exhibited joint or limb inflammation on day 37 at intraperitoneal dose of 0.75 mg/kg (deaths observed at 1.5 mg/kg); format: functional
[27] = tested on: Mus musculus; test: Incidence of disease (mouse type II collagen) was scored as the percentage of animals within each experimental group that exhibited joint or limb inflammation on day 37 at intraperitoneal dose of 0.024 mg/kg (deaths observed at 1.5 mg/kg); format: functional
[28] = tested on: Mus musculus; test: Incidence of disease (mouse type II collagen) was scored as the percentage of animals within each experimental group that exhibited joint or limb inflammation on day 37 at intraperitoneal dose of 0.094 mg/kg (deaths observed at 1.5 mg/kg); format: functional
[29] = tested on: Mus musculus; test: Incidence of disease (mouse type II collagen) was scored as the percentage of animals within each experimental group that exhibited joint or limb inflammation on day 30 at intraperitoneal dose of 0.38 mg/kg (deaths observed at 1.5 mg/kg); format: functional
[30] = tested on: Mus musculus; test: Incidence of disease (mouse type II collagen) was scored as the percentage of animals within each experimental group that exhibited joint or limb inflammation on day 30 at intraperitoneal dose of 0.024 mg/kg (deaths observed at 1.5 mg/kg); format: functional
[31] = tested on: Mus musculus; test: Incidence of disease (mouse type II collagen) was scored as the percentage of animals within each experimental group that exhibited joint or limb inflammation on day 44 at intraperitoneal dose of 0.75 mg/kg (deaths observed at 1.5 mg/kg); format: functional
[32] = tested on: Mus musculus; test: Incidence of disease (mouse type II collagen) was scored as the percentage of animals within each experimental group that exhibited joint or limb inflammation on day 44 at intraperitoneal dose of 0.38 mg/kg (deaths observed at 1.5 mg/kg); format: functional

CCc1c(CN(C)c2ccc(C(=O)NC(CCC(=O)O)C(=O)O)cc2)cnc2nc(N)nc(N)c12 (configuration not stated)
Animals [1]: 0%
Paw swelling [2]: 2.18 mm
Paw swelling [3]: 2.14 mm
Animals [4]: 0%
Paw swelling [5]: 2.17 mm
Paw swelling [6]: 2.15 mm
IC50 [7]: 1 nM
Paw swelling [8]: 2.12 mm
Animals [9]: 0%
Animals [10]: 12%
Paw swelling [11]: 2.15 mm
Animals [12]: 25%
Animals [13]: 12%
Animals [14]: 0%
Animals [15]: 25%
Animals [16]: 50%
Paw swelling [17]: 2.1 mm
Paw swelling [18]: 2.14 mm
Animals [19]: 12%
Paw swelling [20]: 2.15 mm
Animals [21]: 0%
Paw swelling [22]: 2.14 mm
Paw swelling [23]: 2.17 mm
Paw swelling [24]: 2.23 mm
Animals [25]: 0%
Animals [26]: 14%
Animals [27]: 0%
Animals [28]: 25%
Animals [29]: 0%
Animals [30]: 0%
Animals [31]: 14%
Animals [32]: 0%
